Laboratory results reported in patent publication US20220016067A1, “NOVEL ANTI-INFLAMMATORY COMPOUND, PRODUCING METHOD AND USE THEREOF” (priority 2020, published 2022).

Tests used:
Type in all cases: cell-based
[1] = test system: nitric oxide production induced by LPS in RAW264.7 macrophages; experiment: LPS-induced NO production in RAW264.7 macrophages (Griess reagent); settings: 200 μM and 400 μM, LPS 200 ng/ml, RAW264.7, 24 hours
Method: RAW264.7 cells are inoculated in a 96-well plate at a density of 4×10^5 cells/well. After the cells are adhered overnight, 200 ng/ml LPS is added, the blank control group has no LPS added, and incubated at 5% CO2 and 37° C. for 24 hours. On the second day, different concentrations (50, 100, 200 and 400 μM) of Pineapplin PL6 are added to the wells. The blank control group is treated with LPS-free medium, and the blank control group is treated with PL6-free LPS medium. The cells are then cultured under the condition of 5% CO2 and 37° C. After 24 hours of incubation, 150 μl of medium for each group is collected.
A solution of 1% p-aminobenzene sulfonic acid dissolved in 5% phosphoric acid is prepared, and then mixed with 0.1% N-(1-naphthyl)ethylenediamine dihydrochloride at a ratio of 1:1 to form the Griess reagent. Solutions of sodium nitrite at concentrations of 1.5625 μM to 100 μM are prepared for making a standard curve. 150 μl of the collected medium is mixed with 50 μl of the Griess reagent, and reacted in a dark environment for 30 minutes. The change in absorbance at a wavelength of 555 nm is measured using an ELISA reader.

RAW264.7 cells = experiment: Cytotoxicity test (Alamar blue) in RAW264.7 cells; settings: 25, 50, 100, 200, 400 and 800 μM, 24 hours
Method: RAW264.7 cells are cultured in RPMI medium containing 10% fetal bovine serum, 0.2% sodium bicarbonate and 1% penicillin/streptomycin, and in a 5% CO2, 37° C. incubator. The cells are subcultured when a confluency of 70-80% is reached. RAW264.7 cells are inoculated in a 96-well plate at a density of 4×10^4 cells/well per well. After the cells are adhered for overnight incubation, Pineapplin PL6 at different concentrations (25, 50, 100, 200, 400 and 800 μM) or pineapple extract (3, 6, 12 mg/ml) is added to each well. The blank control group is treated with culture medium without the Pineapplin PL6 or pineapple extract After 24 hours of incubation, Alamar blue is used to test cytotoxicity of the Pineapplin PL6. The medium is removed, washed twice with PBS, and diluted 10 times with Alamar Blue reagent in the medium without FBS. After reaction in dark for 6 hours, the change in absorbance at a wavelength of 570 nm is measured by using an ELISA reader.

NFκB = experiment: LPS-induced NFκB expression (p-p65/p65) in RAW264.7 macrophage cells (Western blot); settings: LPS 200 ng/ml, PL6 50-400 μM, 24 hours
Method: In this example, effect of Pineapplin PL6 on the LPS-induced NFκB expression is further tested in the RAW264.7 macrophage cell line. The value of p-p65/p65 is the relative expression level of NFκB protein. The higher the expression level of NFκB, the more inflammation response occurred (as an inflammation index). RAW264.7 macrophage cells were pretreated with LPS (200 ng/ml) for 24 hours, then incubated with various concentrations (50, 100, 200 and 400 μM) of PL6 for 24 hours at a condition of 5% CO2 and 37° C. The (−) control group is treated with LPS-free medium, and the (+) control group is treated with PL6-free LPS medium. The cell culture supernatant of each group is collected, then the protein concentration is calculated, and 30 μg of total protein is taken from each group for protein gel electrophoresis. […] After washing with PBST, the developing agent (Western Chemiluminescent HRP Substrate) is added, and the luminescence fluorescence digital analysis system (ImageQuant LAS 400 mini, GE Healthcare Life Sciences) is used for luminescence color development.
The data shown in FIG. 8 is the relative expression of NFκB protein p-p65/p65, which is calculated by a software, based on the values obtained from the luminescence color film using scanning optical density method and standardized to β-actin protein.

iNOS = experiment: LPS-induced iNOS expression in RAW264.7 macrophage cells (Western blot); settings: LPS 200 ng/ml, PL6 50-400 μM, 24 hours
Method: The effect of Pineapplin PL6 on the LPS-induced iNOS expression is tested in RAW264.7 macrophage cells. The iNOS/β-actin ratio is the relative expression level of iNOS and β-actin protein. The higher the expression level of iNOS, the more inflammation response occurred (as an inflammation index). RAW264.7 macrophage cells were pretreated with LPS (200 ng/ml) for 24 hours, then incubated with various concentrations (50, 100, 200 and 400 μM) of PL6 at 5% CO2 and 37° C. for 24 hours. The (−) control group is treated with LPS-free medium, and the (+) control group is treated with PL6-free LPS medium. The cell culture supernatant of each group is collected, then the protein concentration is calculated, and 30 μg of total protein is taken from each group for protein gel electrophoresis. […] The luminescence fluorescence digital analysis system (ImageQuant LAS 400 mini, GE Healthcare Life Sciences) is used for luminescence color development.
The data shown in FIG. 7 is the relative expression of iNOS protein to β-actin, which is calculated by a software, based on the values obtained from the luminescence color film using scanning optical density method and standardized to β-actin protein.

1,2,3-tricarboxylic acid-propyl-3-hydroxyphenol acrylate [Pineapplin PL6]
production of nitric oxide induced by LPS [1]: significantly reduces
cytotoxicity to RAW264.7 cells (RAW264.7 cells): no obvious cytotoxicity
NFκB protein expression (p-p65/p65) (NFκB): inhibiting NFκB protein expression
iNOS protein expression (iNOS/β-actin) (iNOS): inhibiting iNOS protein expression
